From patent publication EP0409382A1, “Glutamic acid derivatives” (THE WELLCOME FOUNDATION LIMITED, priority 1989, dated 1991)

Test system: MCF-7 breast adenocarcinoma
Test: Cell culture cytotoxicity assay (MTT dye reduction), inhibition of cell growth
Format: cell-based, Human
Conditions: for IC50: MCF7, Anti-tumour Activity Human Breast Adenocarcinoma Cells, MCF-7, 72 hours incubation, medium with 10 nM calcium leucovorin as folate source, read-out: IC₅₀; for inhibiting the growth of MCF-7 cells: 72 hours, MTT dye reduction, result in words
Method: Cells and Medium: MCF-7 breast adenocarcinoma, obtained from the American Type Culture Collection (ATCC) are grown in RPMI 1640 medium supplemented with 10 nM calcium leucovorin instead of folic acid as the folate source; 10% dialyzed fetal calf serum, penicillin, streptomycin and sodium pyruvate (110 µg/ml).
Cytotoxicity Assay: Cells are seeded into 96 well plates using a Perkin Elmer Pro/pette. MCF-7 cells are seeded at 15,000 cells per well in 150 µl of medium and each concentration was assayed in triplicate. Cultures were incubated for 72 hours in a 37^o humidified incubator at5% CO₂. Inhibition of cell growth was measured using the MTT dye reduction assay.
MTT Dye Reduction Assay: Cell dilutions for a standard curve were prepared from a 72 hour log-phase culture. Serial dilutions were seeded in triplicate in 96 well plates and incubated at 37 for 1 hour. MTT (3-(4,5-dimethylthiazol-2-yl)-2,5-diphenyltetrazolium bromide) was dissolved in phosphate buffered saline at 5 mg/ml and sonicated for 30 seconds. Using the Perkin Elmer Pro/pipette, […] of medium was removed and 100 µl of MTT added to the wells of the standard curve and test plates. Suspension cultures were spun for 5 minutes at 1000 rpm before removing medium from the wells. Plates were incubated for 1 hour at 37^o on a platform shaker. Following this incubation, 100 µl of medium was removed from the wells and 100 µl of dimethylsulphoxide added to each well. The plates were sonicated for approximately 10 seconds to solubilize the precipitated formazan dye. The absorbance of each well was measured using a Titertek Multiskan MC microtiter plate reader at 570 nm with a reference wavelength of 750 nm.

SMILES	IC50 [nM]	inhibiting the growth of MCF-7 cells
Nc1nc(N)c(CCCSc2ccc(C(=O)N[C@@H](CCC(=O)O)C(=O)O)cc2)c(=O)[nH]1 [Example 1F, N-[4-[[3-(2,4-Diamino-1,6-dihydro-6-oxo-5-pyrimidinyl)propyl]thio]benzoyl]-L-glutamic acid]	23	active
Nc1nc(N)c(CCCOc2ccc(C(=O)N[C@@H](CCC(=O)O)C(=O)O)cc2)c(=O)[nH]1 [Example 2E, N-[4-[3-(2,4-Diamino-1,6-dihydro-6-oxo-5-pyrimidinyl)propoxy]benzoyl]-L-glutamic acid]	85	active
